Results from patent US7199113B2, “Pharmaceutically active compounds and methods of use thereof” (priority 1998, dated 2007).
Like-named read-outs stand apart in the source and are kept apart here.

Experiments:
[1] = molecular target: T1, human recombinant TF/VIIa complex (lipidated) (Homo sapiens, UniProt P13726); experiment: TF/VIIa-dependent FX activation assay; format: biochemical; conditions: for outcome of primary and secondary screening (TF antagonism): inhibit FX activation at lower concentrations (<0.1 mM) without significant effects on protease activities; for blocking activity in standard assay for TF/VIIa-dependent factor X activation: statement on FIG. 3
T1 construct: Truncated recombinant human tissue factor (e.g. composed of 243 amino acids) is expressed in E. coli; host or cells: E. coli (TF)
Protocol: A more particular example of the primary screening assay discussed previously is as follows. The assay is standard for measuring TF/VIIa-dependent factor X activation. […] In a more preferred embodiment, the primary screening preferably includes the following steps. • 1) admixing in a suitable assay solution about 0.1 nM of human recombinant TF/VIIa complex (lipidated), about 180 nM human FX, and between from about 0.5 μl to about 10 μl of at least one compound to be tested (optionally dissolved in an appropriate vehicle such as water or dimethylsulfoxide (DMSO)) and incubating the reaction at 37° C. for a few minutes up to about an hour or more, • 2) contacting the solution with a suitable chelating agent such as ethylenediaminietetra acetic acid (EDTA) to reduce or stop factor X activation, • 3) contacting the solution with a detectable amount of a chromogenic substrate specific for FXa (e.g., Spectrozyme FXa or S-2765) and incubating same at 37° C.; and • 4) detecting chromophore produced in the solution as being indicative of the factor X activation.
The primary screening for compounds that inhibit tissue factor/factor VIIa (TF/VIIa) is based on TF/VIIa-dependent FX activation assay (See flow chart in FIG. 1 of the drawings). In this assay, the ability of TF/VIIa complex to activate FX is determined in two discontinuous stages. […] In the second stage (FXa activity assay), EDTA is added at indicated times to the FX activation mixture to chelate calcium, thus leading to the termination of FX→FXa conversion. Calcium is required for TF/VIIa activity. The activity of FXa is then measured by FXa-specific chromogenic substrates such as S-2222, S-2765, or Spectrozyme FXa. In the primary screening, compounds from a previously prepared chemical library are first tested at relatively high concentrations (˜0.833 mM) in TF/VIIa-dependent FX activation assay to identify hits of potential TF pathway antagonists (see FIG. 1). However, it is evident that the inhibition of TF/VIIa-dependent FX activation by a compound in this enzyme-coupled assay can be attributed to effects of the compound on TF/VIIa and/or FXa activities. Thus, secondary screening tests are designed to determine how inhibition takes place and the inhibition mechanism. In secondary screening experiments, effects of those compounds identified from primary screening are tested on catalytic activities of factor VIIa (FVIIa), factor IXa (FIXa), factor Xa (FXa), thrombin, Russell's viper venom (RVV), and trypsin.
Primary screening was done in duplicate in 96-well plates using the TF/VIIa-dependent FX activation assay. All compounds to be screened were dissolved in dimethyl sulfoxide (DMSO), other reagents were prepared or diluted in 25 mM HEPES-NaOH, 5 mM CaCl2, 150 mM NaCl, 0.1% BSA, pH 7.5. For assays where TF was used, purified human recombinant TF (100 nM) was first lipidated with phosphatidylcholine (0.07 mg/ml) and phosphatidylserine (0.03 mg/ml) in 50 mM Tris-HCl, pH 7.5, 0.1% bovine serum albumin (BSA) for 30 minutes at 37° C. A stock solution of TF/VIIa complex was then prepared by combining equal volumes of 100 nM lipidated TF and 100 nM FVIIa The complex was incubated at 37° C. for 30 minutes and then was aliquoted and stored at −70° C. for future uses.
For screening assays, 5 μl of each compound (about 10 mM in DMSO) or DMSO were placed in each well of a 96-well plate, followed by adding 45 μl of TF/VIIa complex (0.1 nM). The components in each well were mixed either with pipette tips or by shaking the plate on a Lab-Line titer plate shaker for 30 seconds. After 15 minutes incubation of the plate at a 37° C., 10 μl of human FX (180 nM) was added to each well and mixed as above. The plate was then incubated at 37° C. for 3 to 15 minutes, followed by addition of 10 μl of EDTA (400 mM in 144 mM HEPES, 864 mM NaCl, 0.576% BSA, pH adjusted to 7.5) to each well to terminate FX activation. […]

FVIIa = molecular target: T2, FVIIa (Homo sapiens, UniProt P08709); experiment: FVIIa-dependent FX activation (TF omitted); format: biochemical; conditions: statement on Table 2 (FIG. 2(b))
T2 construct: proteolytic cleavage of the zymogen FVII to the active serine protease FVIIa; purchased Enzyme Research Laboratories Inc
T2 sequence (P08709 213-466 limits assumed): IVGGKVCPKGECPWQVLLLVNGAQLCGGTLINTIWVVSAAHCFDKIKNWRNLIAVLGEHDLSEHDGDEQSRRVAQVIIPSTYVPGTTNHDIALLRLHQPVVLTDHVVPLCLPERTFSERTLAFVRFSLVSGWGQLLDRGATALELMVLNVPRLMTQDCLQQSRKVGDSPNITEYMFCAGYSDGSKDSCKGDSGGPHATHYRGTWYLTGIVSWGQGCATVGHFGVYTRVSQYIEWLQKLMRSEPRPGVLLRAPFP
T2 sequence (P08709 61-212 limits assumed): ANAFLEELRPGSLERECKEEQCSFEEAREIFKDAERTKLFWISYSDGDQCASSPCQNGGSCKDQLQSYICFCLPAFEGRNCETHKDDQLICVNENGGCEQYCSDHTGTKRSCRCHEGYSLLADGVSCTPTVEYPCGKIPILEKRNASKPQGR
Protocol: FVIIa alone in the presence of phospholipids and calcium is also able to activate FX, although at a very low rate. This experiment was designed to examine whether compounds 1 and 2 inhibit FVIIa-dependent FX activation if TF is omitted. […] This assay was done at relatively high FVIIa concentrations. Six microliters of compound 1(1 mM in 10% DMSO) or 10% DMSO was mixed with 40 μl of 25 mM HEPES-NaOH, 5 mM CaCl2, 150 mM NaCl, 0.1% BSA, pH 7.5 containing phosphatidylcholine (0.07 mg/ml) and phosphatidylserine (0.03 mg/ml). Then 4 μl of FVIIa (1.5 μM) and 10 μl of FX (180 nM) were added and mixed. The mixture was incubated for 1 hour at 37° C. Then 10 μl of EDTA (400 mM) was added to stop FVII activity by removing the calcium required for factor VII activity. Then 10 μl of FXa substrate S-2765 (3.2 mM) was added to measure the FXa activity generated by FVIIa. After 16 minutes incubation at 37° C., 20 μl of 50% acetic acid was added to quench the reaction. Absorbance at 405 nm was read and the percent inhibition of FVIIa-dependent FX activation was calculated from OD405 nm values in the absence and presence of compound 1.

[2] = titration, data of Table 3 (FIG. 2(c)), primary screening method, read-out: IC50 (inhibitor concentration at which 50% of TF/VIIa-dependent FX activation is inhibited)

T1 sequence (P13726 33-275 limits assumed, one chain of several): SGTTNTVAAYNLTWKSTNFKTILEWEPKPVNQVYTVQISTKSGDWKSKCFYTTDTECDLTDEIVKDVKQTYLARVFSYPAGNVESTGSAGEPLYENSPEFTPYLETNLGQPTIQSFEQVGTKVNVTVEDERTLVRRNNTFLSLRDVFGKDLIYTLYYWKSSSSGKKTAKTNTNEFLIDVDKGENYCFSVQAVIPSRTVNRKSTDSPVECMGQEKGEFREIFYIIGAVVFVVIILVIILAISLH

SMILES | IC50 ([1]; compound preincubated with TF/VIIa 15 minutes at 37° C. prior to FX, FX 30 nM, read-out: IC50, TF/VIIa-dependent FX activation) | outcome of primary and secondary screening (TF antagonism) [1] | effect on apparent Km values for FX substrate ([1]; kinetic analysis, FIG. 5) | mode of inhibition of TF/VIIa complex ([1]; kinetic analysis, FIG. 5) | blocking activity in standard assay for TF/VIIa-dependent factor X activation [1] | IC50 [1, 2] | inhibition of FVIIa-dependent FX activation (FVIIa)
O=P(O)(O)C(CNc1cccc(O)c1)P(=O)(O)O [Compound 1, 1-(bisphosponate)-2-amino(3-hydroxyphenyl)ethyl] | 12.5 µM | strong TF antagonists | significantly increased | competitive inhibitor | good blocking activity | 19 µM | does not inhibit FVIIa-dependent FX activation
O=P(O)(O)C(CNc1ccc(O)cc1)P(=O)(O)O [Compound 2] |  | strong TF antagonists |  |  | good blocking activity | 9.7 µM | 
